Source: patent US12162892B2, “CD16a binding agents and uses thereof” (KLEO PHARMACEUTICALS, INC., priority 2018, dated 2024)

Key:
Assay type in all cases: binding
CD16a158V [1] = molecular target: T1, CD16a158V (Homo sapiens, UniProt P08637, F176V); test: Microscale Thermophoresis; details: read-out: MST-CD16a158V KD
Method: Target proteins (poly-histidine tagged, 600 nM) were fluorescently labeled combination with an equal volume of dye (200 nM, His-Tag labeling kit RED-tris-NTA NanoTemper: MO-L008) PBST. The mixture rotated in the dark for 45 min before being spun down at 12000 rpm for 15 min to remove uncomplexed material. The fluorescence of the removed supernatant was adjusted to for a test concentration of 40-80 nM (2× the final measured). Test ligands were prepared across a 12-point dilution series in a 96-well PCR plate at a volume of 20 uL at 2× the concentration desired for testing (0.2% BSA in PBST). The dilution series was then combined with an equal volume of the labeled target at 2× the concentration desired for testing. Capillaries were added to the wells of the combined target/ligand complex and measured by MST. Measurements were taken using a Nanotemper Monolith NT.115, and the data was analyzed using NanoTemper MO.Control software.

CD16a158F [2] = molecular target: T2, CD16a158F (Homo sapiens, UniProt P08637); test: NHS-Ester ELISA Assay; set-up: purchased Acro Biosystems CDA-H82E8; details: NHS-Ester ligands 250 μM; 10 nM biotinylated CD16a protein
Method: (§1) Pretreat ELISA plates (Costar 3922) using 200 μl […] (BSA, Heat Shock, Fraction V-American Bio AB01088-00100) in PBS for 2 hours at 25° C. with moderate shaking. BSA was removed and plates were washed. NHS-Ester ligands were diluted in PBS to 250 μM then added (100 μl/well) and incubated for 1 hour at 37° C. […] Plates are removed from the incubator and washed. CD16a/Streptavidin.HRP mixture was added to the plates (100 μl/well) and incubated for 1 hour at 25° C. with gentle shaking. Wash plates. Substrate (Super Signal ELISA Pico Chemiluminescent Substrate-Thermo 37069) was added (100 μl/well) and plates were incubated for 5 minutes at 25° C. with gentle shaking. Luminescence was then measured on the Biotek Synergy H1 microplate reader.

CD16a158V [3] = test: NHS-Ester ELISA Assay; details: NHS-Ester ligands 250 μM; 10 nM biotinylated CD16a protein
Method: as §1

CD16a158F [4] = molecular target: T2, CD16a158F; test: Biotinylated Ligand ELISA Assay; set-up: purchased Acro Biosystems CDA-H82E8; details: Biotinylated CD16a protein at 10 nM
Method: (§2) Coat ELISA plates (Costar 3922) using Neutravidin (Thermo 31000) at 5 μg/ml (100 μl/well) for 1 hour at 37° C. Plates were washed 4 times with PBST (PBS, 0.05% Tween 20-200 μl, 1 minute/wash) then blocked using 200 μl 5% bovine serum albumin (BSA, Heat Shock, Fraction V-American Bio AB01088-00100) in PBST for 2 hours at 25° C. with moderate shaking. BSA was removed and plates were washed. Biotinylated ligands diluted in PBSTB (PBST+0.1% BSA) were then added (100 μl/well) and incubated for 1 hour at 25° C. with gentle shaking. Ligands were removed and plates were washed. Any remaining unoccupied neutravidin binding sites were blocked by adding 100 μM Biotin (Fisher BP232-1) (100 μl/well) and incubated for 1 hour at 25° C. with gentle shaking. Plates were then washed. […] Protein was removed and plates were washed. Streptavidin-HRP (Invitrogen 434323) diluted 1:5000 in PBSTB was added (100 μl/well) and incubated for 1 hour at 25° C. with gentle shaking. Wash plates. Substrate (Super Signal ELISA Pico Chemiluminescent Substrate-Thermo 37069) was added (100 μl/well) and plates were incubated for 5 minutes at 25° C. with gentle shaking. Luminescence was then measured on the Biotek Synergy H1 microplate reader.

CD16a158V [5] = molecular target: T1, CD16a158V; test: Biotinylated Ligand ELISA Assay; details: Biotinylated CD16a protein at 10 nM
Method: as §2

T2 sequence (P08637 17-208 limits assumed): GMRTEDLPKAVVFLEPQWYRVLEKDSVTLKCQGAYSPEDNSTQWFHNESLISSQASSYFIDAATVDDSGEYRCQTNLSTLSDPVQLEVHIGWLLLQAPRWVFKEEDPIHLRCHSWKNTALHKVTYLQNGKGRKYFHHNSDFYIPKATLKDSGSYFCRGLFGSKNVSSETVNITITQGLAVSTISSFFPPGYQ
T1 sequence (P08637 17-208 F176V): as the sequence (P08637 17-208 limits assumed) above, with F160V counted along it

Row | Structure (SMILES) | Kd (CD16a158V [1]) | NHS ester ELISA-CD16a158F Binding (RLU) (CD16a158F [2]) | NHS ester ELISA-CD16a158V Binding (RLU) (CD16a158V [3]) | other results
1 | COc1ccccc1N1CC(C(=O)Nc2ccc(-c3cn(CCOCCOCCOCCOCCOCCOCCOCCOCCNC(=O)CCCC[C@@H]4SC[C@@H]5NC(=O)N[C@@H]54)nn3)cc2)CC1=O (stereo partly shown) [Compound I-35] | 100 to 500 nM | – | – | –
2 | O=C(CCOCCOCCOCCOCCOCCOCCOCCOCCOCCOCCOCCOCCn1cc(-c2cccc(NC(=O)N3CCC4(CC3)NC(=O)N(c3ccccc3)C4=O)c2)nn1)ON1C(=O)CCC1=O [Compound I-9] | – | B (a relative luminescence value (RLU) of 10,000-100,000) | B (a relative luminescence value (RLU) of 10,000-100,000) | –
3 | COc1ccc(OC)c(N2CC(C(=O)Nc3ccc(-c4cn(CCOCCOCCOCCOCCOCCOCCOCCOCCOCCOCCOCCOCCC(=O)ON5C(=O)CCC5=O)nn4)cc3)CC2=O)c1 (stereo not shown) [Compound I-25] | – | C (a relative luminescence value (RLU) of 1,000-10,000) | C (a relative luminescence value (RLU) of 1,000-10,000) | –
4 | O=C(CCOCCOCCOCCOCCOCCOCCOCCOCCOCCOCCOCCOCCNC(=O)c1cnc(N2CCC3(CC2)NC(=O)N(Cc2ccccc2)C3=O)nc1)ON1C(=O)CCC1=O [Compound I-8] | – | C (a relative luminescence value (RLU) of 1,000-10,000) | B (a relative luminescence value (RLU) of 10,000-100,000) | –
5 | CCOc1ccc(N2CC(C(=O)N3CCC(C(=O)NCCOCCOCCOCCOCCOCCOCCOCCOCCNC(=O)CCCC[C@@H]4SC[C@@H]5NC(=O)N[C@@H]54)CC3)CC2=O)cc1 (stereo partly shown) [Compound I-37] | 500 to 1000 nM | – | – | –
6 | O=C(CCCC[C@@H]1SC[C@@H]2NC(=O)N[C@@H]21)NCCOCCOCCOCCOCCOCCOCCOCCOCCNC(=O)c1ccc(S(=O)(=O)N2CCC3(CC2)NC(=O)N(c2ccccc2)C3=O)cc1 [Compound I-22] | – | – | – | Biotinylated Ligand ELISA-CD16a158F Binding (RLU) (CD16a158F [4]): B (a relative luminescence value (RLU) of 10,000-100,000); Biotinylated Ligand ELISA-CD16a158V Binding (RLU) (CD16a158V [5]): B (a relative luminescence value (RLU) of 10,000-100,000)
7 | COc1cccc(N2CC(C(=O)Nc3ccc(-c4cn(CCOCCOCCOCCOCCOCCOCCOCCOCCNC(=O)CCCC[C@@H]5SC[C@@H]6NC(=O)N[C@@H]65)nn4)cc3)CC2=O)c1 (stereo partly shown) [Compound I-34] | 100 to 500 nM | – | – | –
8 | O=C(CCOCCOCCOCCOCCOCCOCCOCCOCCOCCOCCOCCOCCn1cc(-c2ccc(NC(=O)N3CCC4(CC3)NC(=O)N(Cc3ccccc3)C4=O)cc2)nn1)ON1C(=O)CCC1=O [Compound I-2] | – | B (a relative luminescence value (RLU) of 10,000-100,000) | C (a relative luminescence value (RLU) of 1,000-10,000) | –
9 | COc1ccc(OC)c(N2CC(C(=O)Nc3ccc(Cn4cnc(CCOCCOCCOCCOCCOCCOCCOCCOCCNC(=O)CCCC[C@@H]5SC[C@@H]6NC(=O)N[C@@H]65)n4)cc3)CC2=O)c1 (stereo partly shown) [Compound I-38] | 100 to 500 nM | – | – | –
10 | COc1ccc(OC)c(N2CC(C(=O)Nc3ccc(CC4N=NC(COCCOCCOCCOCCOCCOCCOCCOCCNC(=O)CCCC[C@@H]5SC[C@@H]6NC(=O)N[C@@H]65)=N4)cc3)CC2=O)c1 (stereo partly shown) [Compound I-41] | 500 to 1000 nM | – | – | –
11 | COc1ccc(OC)c(N2CC(C(=O)Nc3cccc(-c4cn(CCOCCOCCOCCOCCOCCOCCOCCOCCNC(=O)CCCC[C@@H]5SC[C@@H]6NC(=O)N[C@@H]65)nn4)c3)CC2=O)c1 (stereo partly shown) [Compound I-40] | 100 to 500 nM | – | – | –
12 | O=C(CCOCCOCCOCCOCCOCCOCCOCCOCCOCCOCCOCCOCCn1cc(-c2cccc(-c3cnc(N4CCC5(CC4)NC(=O)N(Cc4ccccc4)C5=O)nc3)c2)nn1)ON1C(=O)CCC1=O [Compound I-6] | – | B (a relative luminescence value (RLU) of 10,000-100,000) | B (a relative luminescence value (RLU) of 10,000-100,000) | –
13 | O=C(CCOCCOCCOCCOCCOCCOCCOCCOCCOCCOCCOCCOCCn1cc(-c2cnc(N3CCC4(CC3)NC(=O)N(Cc3ccccc3)C4=O)nc2)nn1)ON1C(=O)CCC1=O [Compound I-7] | – | C (a relative luminescence value (RLU) of 1,000-10,000) | B (a relative luminescence value (RLU) of 10,000-100,000) | –
14 | COc1ccc(OC)c(N2CC(C(=O)Nc3ccc(-c4cn(CCOCCOCCOCCOCCOCCOCCOCCOCCC(=O)ON5C(=O)CCC5=O)nn4)cc3)CC2=O)c1 (stereo not shown) [Compound I-26] | – | C (a relative luminescence value (RLU) of 1,000-10,000) | C (a relative luminescence value (RLU) of 1,000-10,000) | –
15 | COc1ccc(N2CC(C(=O)Nc3ccc(-c4cn(CCOCCOCCOCCOCCOCCOCCOCCOCCNC(=O)CCCC[C@@H]5SC[C@@H]6NC(=O)N[C@@H]65)nn4)cc3)CC2=O)cc1 (stereo partly shown) [Compound I-33] | 100 to 500 nM | – | – | –
16 | COc1ccc(OC)c(N2C(=O)NC3(CCN(C(=O)Nc4cccc(-c5cn(CCOCCOCCOCCOCCOCCOCCOCCOCCOCCOCCOCCOCCC(=O)ON6C(=O)CCC6=O)nn5)c4)CC3)C2=O)c1 [Compound I-1] | – | B (a relative luminescence value (RLU) of 10,000-100,000) | C (a relative luminescence value (RLU) of 1,000-10,000) | –
